Patent publication US11897862B2 (Gilead Sciences, Inc., priority 2022, dated 2024)

What was measured:
Assay type in all cases: cell-based
[1] = biological target: T1, IKZF1 (Homo sapiens, UniProt Q13422+Q96SW2); assay: HEK293 HiBiT in vitro degradation of IKZF1; settings: for Dmax: HEK293, HEK293 HiBiT; for DC50: 18-24 hr incubation, normalized to DMSO control, read-out: IKZF1 EC50
T1 construct: expressed in transfected cells
Outline: (§1)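 Cellular target level is measured as luminescence from an 11-residue HiBiT tag fused via a linker to the C-terminus of IKZF1, IKZF2 or SALL4 in stable Flp-In T-REx HEK293 pools. Reporter expression is induced overnight with doxycycline ([…] final), and compounds act for 18-24 h before lytic detection.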

[2] = biological target: T2, SALL4 (Homo sapiens, UniProt Q96SW2+Q9UJQ4); assay: HEK293 HiBiT in vitro degradation of SALL4; settings: for DC50: 18-24 hr incubation, normalized to DMSO control, read-out: SALL4 EC50
T2 construct: expressed in transfected cells
Procedure: In vitro degradation of IKZF1, IKZF2, and SALL4 was measured using HiBiT protein tagging and detection technology (Promega).
HiBit technology was used to develop the quantitative assays to measure the cellular IKZFs level by tagging an 11 amino acid HiBit peptides […] to the protein of interest. Reporter plasmids were generated by fusing a linker sequence ([…]) followed by the HiBit tag at the C-terminus of IKZF1, IKZF2, and SALL4. The fusion fragments were subsequently cloned into pcDNA5 pcDNA™5/FRT/TO plasmids (Thermo Fisher, cat #V652020) downstream of the tetracycline operator. The resulting plasmids were co-transfected with pOG44 Flp-Recombinase Expression Vector (Thermo Fisher, cat #V600520) into Flp-In™ T-REx HEK293 line (Thermo Fisher, cat #R78077) and a stable cell pool was selected by adding 100 µg/ml of Hygromycin (Thermo Fisher, cat #10687010). The reporter cell enabled Tet-On inducible reporter expression from a single copy of the integrated gene.
On Day 1, Cells were grown to ˜80% confluency in tissue culture medium (DMEM Glutamax (Gibco10569), 10% Tet free FBS (Takara 631106), and PenStrep Glutamin (Gibco 10378)) in tissue culture flasks. Doxycycline was then added to a final concentration of […] to induce reporter expression at 37° C. overnight.
On Day 2, 125 nL of serially-diluted solution of testing compounds were dispensed into 384-well white solid assay plates via ECHO acoustic liquid handler. Cells were lifted by 0.25% Trypsin (Gibco 25200) then pelleted by centrifugation (Beckman Avanti J-E) at 500×g for 5 min. Cell pellets were resuspended in TC medium at the concentration of 3e5/mL and 25 μL of cell suspension were added into each well of compound-spotted plates. The plates were returned to a 37° C. incubator overnight (18-24 hr).
On Day 3, assay plates were removed from the tissue culture incubator and 25 μL of Nano-Glo lytic detection system (Promega, cat #N3030) was added to each well. Plates were incubated at r.t. for 3 min with shaking, and luminescence was read using an Envision reader (Perkin Elmer).
To assess the IKZF1, IKZF2, and SALL4 degrader potential of exemplified compounds of this disclosure and certain Reference Compounds EC50 and Dmax values were determined for the compounds of Examples 1 to 383 and Reference Compounds A-1, B-1, B-2, B-3, B-4, and C-1 in the HiBiT assays. Asterisks (*) indicate examples for which the data shown represents an average of n≥3.

[3] = biological target: T3, IKZF2 (Homo sapiens, UniProt Q96SW2+Q9UKS7); assay: Human whole blood IKZF2 degradation (flow cytometry, CD4/CD25/Foxp3+ Treg cells); set-up: endogenous in cells; settings: 24 hrs incubation, IKZF2 MFI in CD4/CD25/Foxp3+ Treg cells, flow cytometry
Outline: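 Fresh healthy-donor human whole blood stimulated with CD3/CD28 activator and serially diluted compound for 24 hrs at 37° C. IKZF2 MFI in CD4/CD25/Foxp3+ Tregs (IKZF1 MFI in CD4+ T cells) measured by flow cytometry after RBC lysis, fixation, permeabilization. EC50 and Dmax versus DMSO wells.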
Target sequence in this assay (Q9UKS7 whole entry): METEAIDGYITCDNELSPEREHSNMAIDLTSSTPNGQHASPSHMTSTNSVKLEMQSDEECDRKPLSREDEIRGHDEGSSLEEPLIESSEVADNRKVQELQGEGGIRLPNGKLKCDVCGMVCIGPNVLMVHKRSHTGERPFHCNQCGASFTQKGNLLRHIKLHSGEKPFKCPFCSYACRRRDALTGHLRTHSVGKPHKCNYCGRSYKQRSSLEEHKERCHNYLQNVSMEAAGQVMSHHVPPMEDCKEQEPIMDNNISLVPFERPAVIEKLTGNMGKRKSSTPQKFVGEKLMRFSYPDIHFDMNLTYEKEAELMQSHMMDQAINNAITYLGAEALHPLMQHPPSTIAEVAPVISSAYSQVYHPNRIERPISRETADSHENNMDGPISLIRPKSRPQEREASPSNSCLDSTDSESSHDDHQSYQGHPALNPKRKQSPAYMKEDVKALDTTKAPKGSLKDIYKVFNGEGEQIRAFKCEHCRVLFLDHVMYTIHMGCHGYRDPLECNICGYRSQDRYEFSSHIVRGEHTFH
Target sequence in this assay (Q96SW2 whole entry): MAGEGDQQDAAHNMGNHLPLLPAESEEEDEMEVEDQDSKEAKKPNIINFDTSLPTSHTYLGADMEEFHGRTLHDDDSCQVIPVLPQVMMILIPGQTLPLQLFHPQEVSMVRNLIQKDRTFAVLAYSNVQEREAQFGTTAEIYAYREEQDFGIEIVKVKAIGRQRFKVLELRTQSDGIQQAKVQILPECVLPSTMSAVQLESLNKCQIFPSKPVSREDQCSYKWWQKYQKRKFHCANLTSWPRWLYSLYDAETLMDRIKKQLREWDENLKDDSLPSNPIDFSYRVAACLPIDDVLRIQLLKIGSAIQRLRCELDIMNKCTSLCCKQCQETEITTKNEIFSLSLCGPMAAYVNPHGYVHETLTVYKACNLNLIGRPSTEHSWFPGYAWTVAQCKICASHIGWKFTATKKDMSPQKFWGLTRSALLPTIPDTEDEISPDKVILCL
Target sequence in this assay (Q16531 whole entry partner): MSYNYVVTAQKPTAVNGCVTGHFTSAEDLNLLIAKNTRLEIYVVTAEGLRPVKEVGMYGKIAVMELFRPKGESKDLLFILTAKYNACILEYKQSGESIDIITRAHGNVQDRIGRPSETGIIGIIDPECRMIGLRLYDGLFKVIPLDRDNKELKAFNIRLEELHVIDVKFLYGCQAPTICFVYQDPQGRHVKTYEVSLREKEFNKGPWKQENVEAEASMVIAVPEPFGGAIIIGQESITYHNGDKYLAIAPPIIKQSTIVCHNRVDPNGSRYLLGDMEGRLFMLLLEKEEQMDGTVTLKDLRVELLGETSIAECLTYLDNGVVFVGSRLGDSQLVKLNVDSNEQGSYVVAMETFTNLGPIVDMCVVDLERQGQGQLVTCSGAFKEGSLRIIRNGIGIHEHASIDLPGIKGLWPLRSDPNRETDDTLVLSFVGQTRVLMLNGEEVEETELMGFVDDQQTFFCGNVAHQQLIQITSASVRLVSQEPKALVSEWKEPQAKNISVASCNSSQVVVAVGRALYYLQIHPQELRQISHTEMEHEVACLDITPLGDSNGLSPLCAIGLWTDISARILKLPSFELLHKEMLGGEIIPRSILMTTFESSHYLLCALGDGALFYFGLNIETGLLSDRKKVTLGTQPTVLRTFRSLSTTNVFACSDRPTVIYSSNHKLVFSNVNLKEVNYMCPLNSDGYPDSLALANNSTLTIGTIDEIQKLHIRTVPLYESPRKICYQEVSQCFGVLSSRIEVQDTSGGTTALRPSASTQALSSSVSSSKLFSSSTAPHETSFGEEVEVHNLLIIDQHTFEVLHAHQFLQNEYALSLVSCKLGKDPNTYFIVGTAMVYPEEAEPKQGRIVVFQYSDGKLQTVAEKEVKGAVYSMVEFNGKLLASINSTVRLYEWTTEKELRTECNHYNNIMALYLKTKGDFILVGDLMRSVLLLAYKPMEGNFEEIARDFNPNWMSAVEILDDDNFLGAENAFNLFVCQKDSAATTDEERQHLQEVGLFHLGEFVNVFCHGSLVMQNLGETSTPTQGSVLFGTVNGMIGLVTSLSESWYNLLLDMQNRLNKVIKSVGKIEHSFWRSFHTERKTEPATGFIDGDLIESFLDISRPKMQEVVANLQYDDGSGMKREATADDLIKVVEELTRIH

[4] = biological target: T3, IKZF2; assay: HEK293 HiBiT in vitro degradation of IKZF2; set-up: expressed in transfected cells; settings: for Dmax / IKZF2 Dmax: maximum degradation at the highest concentration tested; for DC50: 18-24 hr incubation, normalized to DMSO control, read-out: IKZF2 EC50
Outline: as §1
Target sequence in this assay (Q9UKS7 1-500 isoform Q9UKS7-2): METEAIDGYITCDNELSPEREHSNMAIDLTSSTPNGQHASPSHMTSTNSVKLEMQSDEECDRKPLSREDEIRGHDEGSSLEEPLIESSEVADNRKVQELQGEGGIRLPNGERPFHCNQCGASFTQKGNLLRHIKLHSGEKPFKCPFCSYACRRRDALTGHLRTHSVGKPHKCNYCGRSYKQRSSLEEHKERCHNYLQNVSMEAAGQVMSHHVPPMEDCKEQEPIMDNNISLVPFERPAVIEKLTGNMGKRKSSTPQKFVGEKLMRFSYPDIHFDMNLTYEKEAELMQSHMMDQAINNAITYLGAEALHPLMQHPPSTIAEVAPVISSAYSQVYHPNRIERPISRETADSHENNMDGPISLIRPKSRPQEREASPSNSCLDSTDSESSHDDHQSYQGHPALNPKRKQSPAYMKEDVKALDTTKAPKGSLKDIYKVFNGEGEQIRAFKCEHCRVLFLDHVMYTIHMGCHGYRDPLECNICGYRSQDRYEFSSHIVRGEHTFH
Target sequence in this assay (Q96SW2 whole entry): as the sequence (Q96SW2 whole entry) above
Target sequence in this assay (Q16531 whole entry partner): as the sequence (Q16531 whole entry partner) above

[5] = biological target: T3, IKZF2; assay: HEK293 IKZF2 degradation kinetics (HiBiT, timepoints 1-24 h); set-up: expressed in transfected cells; settings: HEK293, IKZF2; timepoints 1, 2, 3, 4.5 and 24 hour; read-out: Maximum degradation rate Kinact (converted)
Procedure: The assay technology and principles for evaluating IKZF2 degradation kinetics in HEK293 cells was identical to the HEK293 degradation assay as described above. Additional details are briefly described below.
On Day 1, Cells were grown and induced the same as described above. On Days 2 and 3, compounds for testing were dispensed via ECHO and cells were lifted and plated into compound-spotted assay plates as above. Plates were returned to the 37° C. incubator until addition of Nano-Glo lytic reagent at 1, 2, 3, 4.5, and 24 hour timepoints. At these timepoints, plates were read on Envision reader as above.
All raw data was normalized to DMSO control (final concentration: 0.5%) wells as POC and plotted out as a function of time to generate the degradation rate constant (K) value. The maximum degradation rate (Kinact) was determined by plotting the K value as a function of concentration for each compound tested. Kinact values are shown in Table 25 and the degradation rate plots as well as timecourse of degradation are shown for select compounds in FIG. 1A, FIG. 1B, FIG. 2A and FIG. 2B.
Target sequence in this assay (Q9UKS7 1-500 isoform Q9UKS7-2): as the sequence (Q9UKS7 1-500 isoform Q9UKS7-2) above
Target sequence in this assay (Q96SW2 whole entry): as the sequence (Q96SW2 whole entry) above
Target sequence in this assay (Q16531 whole entry partner): as the sequence (Q16531 whole entry partner) above

[6] = maximum degradation at the highest concentration tested

T1 sequence (Q13422 whole entry): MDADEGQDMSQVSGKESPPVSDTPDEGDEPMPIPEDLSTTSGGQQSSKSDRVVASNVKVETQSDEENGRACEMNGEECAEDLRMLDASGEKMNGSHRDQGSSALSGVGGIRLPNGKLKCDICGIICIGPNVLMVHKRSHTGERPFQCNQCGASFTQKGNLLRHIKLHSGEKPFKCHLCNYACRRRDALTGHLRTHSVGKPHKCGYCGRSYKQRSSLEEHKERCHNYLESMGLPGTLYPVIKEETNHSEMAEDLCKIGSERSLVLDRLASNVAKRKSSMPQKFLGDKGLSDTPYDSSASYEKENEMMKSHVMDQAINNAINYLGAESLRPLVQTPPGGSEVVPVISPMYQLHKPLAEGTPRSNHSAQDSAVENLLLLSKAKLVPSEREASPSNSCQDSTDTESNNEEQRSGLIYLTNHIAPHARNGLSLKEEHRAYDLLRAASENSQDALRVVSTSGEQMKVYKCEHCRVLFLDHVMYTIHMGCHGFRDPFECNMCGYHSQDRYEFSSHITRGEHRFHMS
T1 sequence (Q96SW2 whole entry): as the sequence (Q96SW2 whole entry) above
T1 sequence (Q16531 whole entry partner): as the sequence (Q16531 whole entry partner) above
T2 sequence (Q9UJQ4 whole entry): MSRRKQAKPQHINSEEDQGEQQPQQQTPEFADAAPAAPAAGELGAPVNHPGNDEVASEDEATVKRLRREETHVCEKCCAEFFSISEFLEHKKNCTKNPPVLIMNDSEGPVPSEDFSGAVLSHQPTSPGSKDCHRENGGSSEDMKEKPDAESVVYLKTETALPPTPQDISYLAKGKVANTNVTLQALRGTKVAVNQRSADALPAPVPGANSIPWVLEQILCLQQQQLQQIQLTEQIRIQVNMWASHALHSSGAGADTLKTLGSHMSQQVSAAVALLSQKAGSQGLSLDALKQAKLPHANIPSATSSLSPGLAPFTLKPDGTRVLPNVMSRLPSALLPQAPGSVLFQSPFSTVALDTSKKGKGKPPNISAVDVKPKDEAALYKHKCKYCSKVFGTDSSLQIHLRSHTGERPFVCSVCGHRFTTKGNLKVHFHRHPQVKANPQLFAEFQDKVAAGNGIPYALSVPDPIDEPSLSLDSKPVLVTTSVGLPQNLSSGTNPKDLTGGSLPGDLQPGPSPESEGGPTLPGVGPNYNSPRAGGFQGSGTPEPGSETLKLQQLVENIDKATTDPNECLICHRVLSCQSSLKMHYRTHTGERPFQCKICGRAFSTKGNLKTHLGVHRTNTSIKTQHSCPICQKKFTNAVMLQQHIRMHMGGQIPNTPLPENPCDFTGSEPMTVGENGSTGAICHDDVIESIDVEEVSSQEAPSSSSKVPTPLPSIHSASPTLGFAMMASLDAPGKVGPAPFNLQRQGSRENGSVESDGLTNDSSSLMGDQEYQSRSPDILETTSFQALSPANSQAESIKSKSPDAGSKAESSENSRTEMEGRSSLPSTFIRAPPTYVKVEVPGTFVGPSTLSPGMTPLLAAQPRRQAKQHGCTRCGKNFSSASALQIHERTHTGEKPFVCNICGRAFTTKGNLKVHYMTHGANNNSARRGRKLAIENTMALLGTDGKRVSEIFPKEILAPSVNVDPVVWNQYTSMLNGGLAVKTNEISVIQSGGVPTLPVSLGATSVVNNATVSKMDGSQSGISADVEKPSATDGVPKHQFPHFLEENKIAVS
T2 sequence (Q96SW2 whole entry): as the sequence (Q96SW2 whole entry) above
T2 sequence (Q16531 whole entry partner): as the sequence (Q16531 whole entry partner) above

| Dmax [1, 6] [%] | DC50 ([1]; HEK293 HiBiT) [nM] | DC50 [2] [nM] | Dmax [3] [%] | DC50 ([3]; read-out: IKZF2 EC50) [nM] | Dmax ([4]; HEK293, HEK293 HiBiT) [%] | DC50 ([4]; HEK293 HiBiT) [nM] | IKZF2 Dmax ([4]; HEK293 HiBiT) [%] | IKZF1 Dmax ([1]; HEK293 HiBiT, maximum degradation at the highest concentration tested) [%] | Dmax [2, 6] [%] | kinact [5] [s⁻¹] | SMILES | Dmax ([4]; HEK293 HiBiT) [%] |
| --- | --- | --- | --- | --- | --- | --- | --- | --- | --- | --- | --- | --- |
| 71 | 16 | > 10000 |  |  | 95 | 3 |  |  |  |  | CC1CC[C@H](NC2CCC(F)(F)CC2)[C@@H](Cc2ccc3c(c2)CN(C2CCC(=O)NC2=O)C3=O)C1 (single isomer, unassigned) [Example 324] |  |
|  | > 1000 | > 10000 |  |  | 95 | 6 |  |  |  |  | O=C1CC[C@H](N2Cc3c(ccc(C[C@H]4OCCC[C@@H]4NC4CCC(F)(F)CC4)c3F)C2=O)C(=O)N1 (single isomer, unassigned) [Example 332] |  |
|  | 210 | > 10000 |  |  | 94 | 9 |  |  |  |  | O=C1CC[C@@H](N2Cc3c(ccc(C[C@H]4OCCC[C@@H]4NC4CCC(F)(F)CC4)c3F)C2=O)C(=O)N1 (single isomer, unassigned) [Example 333] |  |
| 59 | 13 | > 10000 |  |  | 97 | 1 |  |  |  |  | O=C1CC[C@H](N2Cc3c(ccc(C[C@H]4CCCC[C@@H]4NC4CCC(F)(F)CC4)c3F)C2=O)C(=O)N1 (single isomer, unassigned) [Example 334] |  |
| 62 | 16 | > 10000 |  |  | 97 | 1 |  |  |  |  | O=C1CC[C@@H](N2Cc3c(ccc(C[C@H]4CCCC[C@@H]4NC4CCC(F)(F)CC4)c3F)C2=O)C(=O)N1 (single isomer, unassigned) [Example 335] |  |
| 39 | 114 | > 10000 |  |  | 97 | 11 |  |  |  |  | O=C1CCC(N2Cc3cc(C[C@H]4CCCC[C@@H]4NC4CCc5c(C(F)(F)F)n[nH]c5C4)ccc3C2=O)C(=O)N1 (single isomer, unassigned) [Example 362] |  |
|  | 50 | > 10000 |  |  |  | 1 | 97 | 56 |  |  | O=C1CCC(N2Cc3cc(C[C@H]4CCCC[C@@H]4NC4CCc5c(C(F)(F)F)n[nH]c5C4)ccc3C2=O)C(=O)N1 (single isomer, unassigned) [Example 363] |  |
|  | > 1000 | > 10000 |  |  | 85 | 17 |  |  |  |  | O=C1CCC(N2Cc3cc(C[C@H]4OCCC[C@@H]4NC4CCC(F)CC4)ccc3C2=O)C(=O)N1 (single isomer, unassigned) [Example 366] |  |
|  | > 1000 | > 10000 |  |  |  | 15 | 87 |  |  |  | O=C1CCC(N2Cc3cc(C[C@H]4OCCC[C@@H]4NC4CCC(F)CC4)ccc3C2=O)C(=O)N1 (single isomer, unassigned) [Example 367] |  |
| 42 | 79 | > 10000 |  |  | 97 | 1 |  |  |  |  | O=C1CCC(N2Cc3cc(C[C@H]4C[C@H](F)CC[C@@H]4NC4CCC(F)(F)CC4)ccc3C2=O)C(=O)N1 (stereo partly shown) [Example 169] |  |
| 62 | 35 | > 10000 |  |  | 97 | 1 |  |  |  |  | [2H]C1(N[C@H]2CCCC[C@@H]2Cc2ccc3c(c2F)CN(C2CCC(=O)NC2=O)C3=O)CCC(F)(F)CC1 (stereo partly shown) [Example 209] |  |
| 51 | 41 | > 10000 |  |  | 93 | 6 |  |  |  |  | CO[C@H]1CC[C@H](Cc2ccc3c(c2)CN(C2CCC(=O)NC2=O)C3=O)[C@@H](NC2CCC(F)(F)CC2)C1 (stereo partly shown) [Example 344] |  |
| 47 | 323 | 3100 |  |  | 99 | 3 |  |  | 47 |  | O=C1CCC(N2Cc3cc(C[C@H]4CCCC[C@@H]4NC4CCc5[nH]nc(C(F)(F)F)c5C4)ccc3C2=O)C(=O)N1 (stereo partly shown) [Example 352] |  |

The remaining lines, values behind:

| SMILES | Dmax [1, 6] [%] | DC50 ([1]; HEK293 HiBiT) [nM] | DC50 [2] [nM] | Dmax [3] [%] | DC50 ([3]; read-out: IKZF2 EC50) [nM] | Dmax ([4]; HEK293, HEK293 HiBiT) [%] | DC50 ([4]; HEK293 HiBiT) [nM] | IKZF2 Dmax ([4]; HEK293 HiBiT) [%] | IKZF1 Dmax ([1]; HEK293 HiBiT, maximum degradation at the highest concentration tested) [%] | Dmax [2, 6] [%] | kinact [5] [s⁻¹] | Dmax ([4]; HEK293 HiBiT) [%] |
| --- | --- | --- | --- | --- | --- | --- | --- | --- | --- | --- | --- | --- |
| O=C1CCC(N2Cc3c(ccc(C[C@H]4OCCC[C@@H]4N[C@H]4CC[C@@H](F)CC4)c3F)C2=O)C(=O)N1 (single isomer, unassigned) [Example 290] | 27 | 138 | > 10000 | 96 | 6 | 98 | 4 |  |  |  |  |  |
| COC1(C)CCC(N[C@H]2CCCO[C@@H]2Cc2ccc3c(c2F)CN(C2CCC(=O)NC2=O)C3=O)CC1 (single isomer, unassigned) [Example 316] |  | > 1000 | > 10000 |  |  | 95 | 7 |  |  |  |  |  |
| O=C1CCC(N2Cc3c(ccc(C[C@H]4OCCC[C@@H]4NC4CCC(OC(F)F)CC4)c3F)C2=O)C(=O)N1 (single isomer, unassigned) [Example 327] |  | 535 | > 10000 |  |  |  | 3 | 96 |  |  |  |  |
| O=C1CC[C@H](N2Cc3c(ccc(C[C@H]4OCCC[C@@H]4N[C@H]4CC[C@H](C(F)F)CC4)c3F)C2=O)C(=O)N1 (single isomer, unassigned) [Example 330] | 28 | 37 | > 10000 |  |  | 94 | 3 |  |  |  |  |  |
| O=C1CC[C@@H](N2Cc3c(ccc(C[C@H]4OCCC[C@@H]4N[C@H]4CC[C@H](C(F)F)CC4)c3F)C2=O)C(=O)N1 (single isomer, unassigned) [Example 331] |  | 448 | > 10000 |  |  | 96 | 4 |  |  |  |  |  |
| O=C1CCC(N2Cc3c(ccc(C[C@H]4OCCC[C@@H]4NC4CCC5(CC4)CC5(F)F)c3F)C2=O)C(=O)N1 (single isomer, unassigned) [Example 364] | 37 | 45 | > 10000 |  |  | 96 | 3 |  |  |  |  |  |
| O=C1CCC(N2Cc3c(ccc(C[C@H]4OCCC[C@@H]4NC4CCN(CC(F)(F)F)CC4)c3F)C2=O)C(=O)N1 (stereo partly shown) [Example 308] |  | > 1000 | > 10000 |  |  | 96 | 12 |  |  |  |  |  |
| O=C1CCC(N2Cc3c(ccc(C[C@H]4OCCC[C@@H]4NC4CCN(CC(F)F)CC4)c3F)C2=O)C(=O)N1 (stereo partly shown) [Example 309] |  | > 1000 | > 10000 |  |  |  | 16 |  |  |  |  | 96 |
| Cn1ncc2c1CCC(N[C@H]1CCCC[C@@H]1Cc1ccc3c(c1)CN(C1CCC(=O)NC1=O)C3=O)C2 (stereo partly shown) [Example 377] | 48 | 73 | > 10000 |  |  | 97 | 5 |  |  |  |  |  |
| O=C1CCC(N2Cc3cc(O[C@H]4CCCC[C@@H]4NCc4ccccc4)ccc3C2=O)C(=O)N1 (stereo partly shown) [Example B-3] |  |  |  |  |  | 84 |  |  |  |  | 5.56e-05 |  |
